Laboratory results published in ChEMBL document CHEMBL4354830, “Discovery of Benzo[cd]indol-2(1H)-ones and Pyrrolo[4,3,2-de]quinolin-2(1H)-ones as Bromodomain and Extra-Terminal Domain (BET) Inhibitors with Selectivity for the First Bromodomain with Potential High Efficiency against Acute Gouty Arthritis” (J Med Chem, 2019).

Assays:
[1] = target: T1, Bromodomain-containing protein 4 (Homo sapiens, UniProt O60885); experiment: Displacement of tetra-acetylated histone H4 peptide (1-21) from recombinant human N-terminal His-tagged BRD4 BD2 (349 to 460 residues) expressed in Escherichia coli incubated for 30 mins followed by further incubation with tetra-acetylated histone H4 peptide (1-21) for 30 mins by Alphascreen assay
RAW264.7 = experiment: Inhibition of LPS-induced NO overproduction in mouse RAW264.7 cells at 1 uM incubated for 2 hrs followed by LPS stimulation and measured after 22 hrs by Griess reagent based assay relative to control; assay type: functional; details: for inhibition at 1 µM: Mus musculus, RAW264.7
[2] = target: T1, Bromodomain-containing protein 4; experiment: Displacement of tetra-acetylated histone H4 peptide (1-21) from recombinant human N-terminal His-tagged BRD4 BD1 (44 to 170 residues) expressed in Escherichia coli incubated for 30 mins followed by further incubation with tetra-acetylated histone H4 peptide (1-21) for 30 mins by Alphascreen assay
[3] = target: T1, Bromodomain-containing protein 4; experiment: Binding affinity to recombinant human N-terminal His-tagged BRD4 BD1 (44 to 170 residues) expressed in Escherichia coli assessed as change in melting temperature at 10 uM by SYPRO Orange based differential scanning fluorimetry

`COc1ccccc1S(=O)(=O)Nc1ccc2c3c(cc(N4CCOCC4)nc13)C(=O)N2C` was tested, and the IC50 [1] was 808 nM, the inhibition at 1 µM (RAW264.7) was 100% and the IC50 [2] was 95.2 nM.
`CCOC(=O)CC1CCN(c2cc3c4c(ccc(NS(=O)(=O)c5ccccc5OC)c4n2)N(C)C3=O)CC1` was tested, and the IC50 [2] was 709 nM.
Compound `CN1C(=O)c2cccc3c(NS(=O)(=O)c4c(F)cccc4F)ccc1c23` has an IC50 [2] of 9070 nM and a ΔTm [3] of 3.73 °C.
In the case of `COc1ccccc1S(=O)(=O)Nc1ccc2c3c(ccnc13)C(=O)N2C`, the IC50 [1] is reported as 4600 nM, the inhibition at 1 µM (RAW264.7) is reported as 94.3% and the IC50 [2] is reported as 205 nM. It also gave a ΔTm [3] of 7.64 °C.
Compound `COc1ccccc1S(=O)(=O)Nc1ccc2c3c(cc(-c4cnn(C)c4)nc13)C(=O)N2C` has an IC50 [1] of 289 nM and an IC50 [2] of 12.6 nM.
`COc1ccccc1S(=O)(=O)Nc1ccc2c3c(cc(-n4ccnc4)nc13)C(=O)N2C` was tested, and the IC50 [1] was 4110 nM and the IC50 [2] was 889 nM.
Compound `Cc1cc(/N=N/c2ccc(S(=O)(=O)Nc3ccc(C#N)cc3)cc2)cc(C)c1O` has an IC50 [1] of 7070 nM, an inhibition at 1 µM (RAW264.7) of 43.4% and an IC50 [2] of 328 nM.
In the case of `CN1C(=O)c2ccnc3c(NS(=O)(=O)c4ccc(Cl)cc4)ccc1c23`, the IC50 [1] is reported as 20500 nM, the IC50 [2] is reported as 3470 nM and the ΔTm [3] is reported as 6.53 °C.
`COc1ccccc1S(=O)(=O)Nc1ccc2c3c(cc(Cl)nc13)C(=O)N2C` showed an IC50 [2] of 656 nM.
With `O=C1Nc2ccc(NS(=O)(=O)c3ccc(Cl)cc3)c3cccc1c23` the IC50 [1] was 15500 nM, the IC50 [2] was 769 nM and the ΔTm [3] was 3.73 °C.
`CN1C(=O)c2cc(-c3cnn(C4CC4)c3)cc3c(NS(=O)(=O)c4ccc(Cl)cc4)ccc1c23` was tested, and the IC50 [2] was 666 nM.
`COc1ccccc1S(=O)(=O)Nc1ccc2c3c(cc(-c4cnn(C5CC5)c4)cc13)C(=O)N2C` was tested, and the IC50 [1] was 238 nM, the inhibition at 1 µM (RAW264.7) was 83.7% and the IC50 [2] was 14.4 nM.
Work on `COc1cc(OC)c2c(=O)[nH]c(-c3cc(C)c(OCCO)c(C)c3)nc2c1` [APABETALONE] yielded an inhibition at 1 µM (RAW264.7) of 9.17%.
Compound `Cc1ccccc1NS(=O)(=O)c1ccc2c3c(cccc13)C(=O)N2C` has an IC50 [2] of 15500 nM and a ΔTm [3] of 2.23 °C.
With `CCN1C(=O)c2cccc3c(NS(=O)(=O)c4ccc(Cl)cc4)ccc1c23` the IC50 [1] was 2720 nM, the IC50 [2] was 237 nM and the ΔTm [3] was 6.36 °C.
With `CCCn1cc(-c2cc3c4c(ccc(NS(=O)(=O)c5ccccc5OC)c4c2)N(C)C3=O)cn1` the IC50 [1] was 266 nM, the inhibition at 1 µM (RAW264.7) was 106% and the IC50 [2] was 43.7 nM.
For `CN1CCN(c2cc3c4c(ccc(NS(=O)(=O)c5ccc(Cl)cc5)c4n2)N(C)C3=O)CC1`, the IC50 [2] was 391 nM.
`COc1ccccc1S(=O)(=O)Nc1ccc2c3c(cc(-c4cnn(C)c4)cc13)C(=O)N2C` was tested, and the IC50 [1] was 435 nM, the inhibition at 1 µM (RAW264.7) was 102% and the IC50 [2] was 17.4 nM.
Work on `COc1ccccc1S(=O)(=O)Nc1ccc2c3c(cc(NC4CC4)nc13)C(=O)N2C` yielded an IC50 [1] of 660 nM and an IC50 [2] of 271 nM.
In the case of `Cc1sc2c(c1C)C(c1ccc(Cl)cc1)=N[C@@H](CC(=O)OC(C)(C)C)c1nnc(C)n1-2`, the “inhibition (INH)” value (RAW264.7) is reported as 47.56%.
For `CN1C(=O)c2cccc3c(NS(=O)(=O)c4ccccc4OC(F)(F)F)ccc1c23`, the IC50 [2] was 3890 nM and the ΔTm [3] was 4.73 °C.
In the case of `CN1C(=O)c2cc(Cl)nc3c(NS(=O)(=O)c4ccc(Cl)cc4)ccc1c23`, the IC50 [2] is reported as 2600 nM.
With `CN1C(=O)c2cccc3c(NS(=O)(=O)c4ccc(F)cc4Cl)ccc1c23` the IC50 [1] was 3830 nM, the inhibition at 1 µM (RAW264.7) was 98.1% and the IC50 [2] was 91.3 nM. The ΔTm [3] was 6.23 °C.
`CN1C(=O)c2cccc3c(NS(=O)(=O)c4cccs4)ccc1c23` gave an IC50 [2] of 3720 nM and a ΔTm [3] of 4.02 °C.
`CN1C(=O)c2cc(-c3cnn(C)c3)cc3c(NS(=O)(=O)c4ccc(Cl)cc4)ccc1c23` gave an IC50 [2] of 348 nM.
In the case of `Cc1ccc(S(=O)(=O)Nc2ccc3c4c(ccnc24)C(=O)N3C)cc1`, the IC50 [1] is reported as 6620 nM, the IC50 [2] is reported as 1570 nM and the ΔTm [3] is reported as 5.12 °C.
With `COc1ccccc1S(=O)(=O)Nc1ccc2c3c(cc(-c4ccoc4)cc13)C(=O)N2C` the IC50 [2] was 164 nM.
`COc1ccccc1S(=O)(=O)Nc1ccc2c3c(cc(NC(C)(C)C)nc13)C(=O)N2C` was tested, and the IC50 [1] was 2080 nM and the IC50 [2] was 573 nM.
In the case of `CCCn1cc(-c2cc3c4c(ccc(NS(=O)(=O)c5ccc(Cl)cc5OC)c4c2)N(C)C3=O)cn1`, the IC50 [1] is reported as 320 nM and the IC50 [2] is reported as 107 nM.
`COc1ccccc1S(=O)(=O)Nc1ccc2c3c(cc(N4CCC(CO)CC4)nc13)C(=O)N2C` showed an IC50 [1] of 29600 nM and an IC50 [2] of 169 nM.
For `CN1C(=O)c2cccc3c(NS(=O)(=O)c4cccc5cccnc45)ccc1c23`, the IC50 [1] was 260 nM, the IC50 [2] was 329 nM and the ΔTm [3] was 4.13 °C.
In the case of `COc1cc(Cl)ccc1S(=O)(=O)Nc1ccc2c3c(cc(-c4cnn(C5CC5)c4)cc13)C(=O)N2C`, the IC50 [1] is reported as 435 nM and the IC50 [2] is reported as 37.5 nM.
`COc1ccccc1S(=O)(=O)Nc1ccc2c3c(cc(-c4ccco4)nc13)C(=O)N2C` gave an IC50 [1] of 982 nM, an inhibition at 1 µM (RAW264.7) of 64.9% and an IC50 [2] of 35.1 nM.
With `COc1ccccc1S(=O)(=O)Nc1ccc2c3c(cc(-c4ccoc4)nc13)C(=O)N2C` the IC50 [1] was 459 nM, the inhibition at 1 µM (RAW264.7) was 66.3% and the IC50 [2] was 37 nM.
`COc1ccccc1S(=O)(=O)Nc1ccc2c3c(cc(-c4cnn(Cc5ccccc5)c4)cc13)C(=O)N2C` was tested, and the IC50 [2] was 205 nM.
`CN1C(=O)c2cccc3c(NS(=O)(=O)c4ccccc4Cl)ccc1c23` gave an IC50 [1] of 6050 nM, an IC50 [2] of 1530 nM and a ΔTm [3] of 5.37 °C.
Work on `CN1C(=O)c2cccc3c(NS(=O)(=O)c4ccc(Cl)cc4)ccc1c23` yielded an IC50 [1] of 2720 nM, an inhibition at 1 µM (RAW264.7) of 15.1% and an IC50 [2] of 167 nM. The ΔTm [3] was 6.5 °C.
Work on `COc1ccccc1S(=O)(=O)Nc1ccc2c3c(cc(NCCN4CCCCC4)nc13)C(=O)N2C` yielded an IC50 [1] of 7070 nM and an IC50 [2] of 328 nM.
`COc1ccccc1S(=O)(=O)Nc1ccc2c3c(cccc13)C(=O)N2C` showed an IC50 [1] of 2480 nM, an inhibition at 1 µM (RAW264.7) of 51.4% and an IC50 [2] of 49.5 nM. The ΔTm [3] was 8.72 °C.
Compound `CN1C(=O)c2cccc3c(NS(=O)(=O)c4cccnc4)ccc1c23` has an IC50 [1] of 13700 nM, an IC50 [2] of 2440 nM and a ΔTm [3] of 2.3 °C.
`COc1ccccc1S(=O)(=O)Nc1ccc2c3c(cc(NCC4CCOCC4)nc13)C(=O)N2C` showed an IC50 [2] of 503 nM.
For `COc1cc(Cl)ccc1S(=O)(=O)Nc1ccc2c3c(cccc13)C(=O)N2C`, the IC50 [1] was 3470 nM, the IC50 [2] was 299 nM and the ΔTm [3] was 7.1 °C.
`Cc1ccc(S(=O)(=O)Nc2ccc3c4c(cccc24)C(=O)N3C)cc1` gave an IC50 [1] of 2280 nM, an IC50 [2] of 545 nM and a ΔTm [3] of 7.36 °C.
Work on `COc1ccccc1S(=O)(=O)Nc1ccc2c3c(cc(N4CCN(C(=O)OC(C)(C)C)CC4)nc13)C(=O)N2C` yielded an IC50 [1] of 2170 nM and an IC50 [2] of 334 nM.
For `Cc1ccccc1S(=O)(=O)Nc1ccc2c3c(cccc13)C(=O)N2C`, the IC50 [2] was 709 nM and the ΔTm [3] was 5.1 °C.
With `COc1ccccc1S(=O)(=O)Nc1ccc2c3c(cc(N[C@H](C)c4ccccn4)nc13)C(=O)N2C` the IC50 [2] was 2230 nM.
`CN1C(=O)c2cccc3c(NS(=O)(=O)c4cccc(Cl)c4F)ccc1c23` was tested, and the IC50 [2] was 1700 nM and the ΔTm [3] was 4.83 °C.
For `CN1C(=O)c2cc(N3CCOCC3)nc3c(NS(=O)(=O)c4ccc(Cl)cc4)ccc1c23`, the IC50 [2] was 217 nM.
With `COc1ccccc1S(=O)(=O)Nc1ccc2c3c(cc(NCC4CCN(C)CC4)nc13)C(=O)N2C` the IC50 [1] was 1280 nM, the inhibition at 1 µM (RAW264.7) was 47.2% and the IC50 [2] was 113 nM.
Work on `COc1ccccc1S(=O)(=O)Nc1ccc2c3c(cc(N4CCN(C)CC4)nc13)C(=O)N2C` yielded an IC50 [1] of 2120 nM, an inhibition at 1 µM (RAW264.7) of 92.5% and an IC50 [2] of 100 nM.
`COc1ccccc1S(=O)(=O)Nc1ccc2c3c(cc(NCCN4CCN(C)CC4)nc13)C(=O)N2C` showed an IC50 [1] of 1520 nM, an inhibition at 1 µM (RAW264.7) of 39.6% and an IC50 [2] of 223 nM.
Compound `COc1ccccc1S(=O)(=O)Nc1ccc2c3c(cc(-c4cnn(C5CC5)c4)nc13)C(=O)N2C` has an IC50 [1] of 107 nM and an IC50 [2] of 16.6 nM.
For `Cc1cc(F)ccc1S(=O)(=O)Nc1ccc2c3c(cccc13)C(=O)N2C`, the IC50 [2] was 810 nM and the ΔTm [3] was 4.32 °C.
